In ChEMBL document CHEMBL5528033, “Peptide-Drug Conjugates: An Emerging Direction for the Next Generation of Peptide Therapeutics” (J Med Chem, 2024):
Starred links: 1 amine or outer side, 2 acyl side, 3 side chain; linkers in the order of their positions; H or OH if unused. Positions of bridges follow the written chain, without caps; N, C: chain ends. Non-standard residues stand in square brackets, D forms with d. Residues, ends and D or L forms follow the SMILES beside them. *: point of attachment. DAMPA = CN(Cc1cnc2nc(N)nc(N)c2n1)c1ccc(C(=O)*)cc1; γGlu = O=C(O)[C@H](CCC(=O)[*:2])N[*:1]; Pen = CC(C)(S)[C@H](N)C(=O)O

What was measured:
[1] = Binding affinity to Dengue virus NS2B-NS3 protease assessed as inhibition constant
[2] = molecular target: Kappa-type opioid receptor (Mus musculus, UniProt P33534); experiment: Displacement of [3H]DPN from mouse KOR stably expressed in HEK293T cell membrane assessed as inhibition constant by radioligand binding assay; type: cell membranes
[3] = Stability in rat heart assessed as half life measured upto 120 mins; type: ADME, tissue-based
[4] = Stability of the compound assessed as half life at pH 6; type: physicochemical; conditions: buffer
[5] = Stability in rat plasma assessed as half life measured upto 120 mins; type: ADME, cell-free

Chain of Kappa-type opioid receptor (P33534 whole entry): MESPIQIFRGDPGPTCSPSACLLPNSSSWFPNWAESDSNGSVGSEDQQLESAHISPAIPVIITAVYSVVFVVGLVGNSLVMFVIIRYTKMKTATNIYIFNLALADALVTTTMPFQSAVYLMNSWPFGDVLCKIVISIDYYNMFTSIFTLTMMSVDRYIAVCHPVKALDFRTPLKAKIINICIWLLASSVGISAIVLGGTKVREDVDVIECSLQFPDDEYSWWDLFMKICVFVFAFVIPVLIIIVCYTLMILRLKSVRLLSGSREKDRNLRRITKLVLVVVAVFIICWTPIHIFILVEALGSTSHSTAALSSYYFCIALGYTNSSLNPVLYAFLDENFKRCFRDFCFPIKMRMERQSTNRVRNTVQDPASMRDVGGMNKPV

CCCC[C@@H](NC(=O)[C@H](CCCCN)NC(=O)[C@H](CCCNC(=N)N)NC(=O)c1ccc(/C=C(\C#N)C(=O)NC2CC2)cc1)C(N)=O
Ki [1]: 4900 nM

C[C@H](O)[C@@H]1NC(=O)[C@H](Cc2ccc(O)cc2)NC(=O)[C@@H](C)NC(=O)[C@@H](Cc2ccc(O)cc2)NC(=O)CSC[C@@H](C(=O)N[C@@H](C(=O)N[C@H](Cc2ccccc2)C(=O)N[C@@H]2CCC3C4Cc5ccc(O)c6c5C3(CCN4C)[C@H]2O6)[C@@H](C)O)NC(=O)[C@H]([C@H](C)O)NC1=O (stereo partly specified)
Ki [2]: 72 nM

C=CCN1CCC23c4c5ccc(O)c4O[C@H]2[C@H](NC(=O)[C@@H](Cc2ccccc2)NC(=O)[C@H](NC(=O)[C@@H]2CSCC(=O)N[C@H](Cc4ccc(O)cc4)C(=O)N[C@H](C)C(=O)N[C@@H](Cc4ccc(O)cc4)C(=O)N[C@@H]([C@H](C)O)C(=O)N[C@@H]([C@H](C)O)C(=O)N2)[C@@H](C)O)CCC3C1C5 (stereo partly specified)
Ki [2]: 3.9 nM

CC(C)C[C@@H]1NC(=O)[C@H](C(C)C)NC(=O)[C@H](CO)NC(=O)CNC(=O)CNC(=O)[C@H](CCCNC(=N)N)NC(=O)[C@@H]2CCCN2C(=O)[C@@H](NC(=O)CC[C@H](NC(=O)c2ccc(N(C)Cc3cnc4nc(N)nc(N)c4n3)cc2)C(=O)O)C(C)(C)SSC[C@@H](C(=O)O)NC(=O)CNC(=O)[C@H]([C@@H](C)O)NC(=O)[C@H](C(C)C)NC1=O ({DAMPA-γGlu}-[Pen]PRGGSVLVTGC-OH; disulfide 1-12)
half-life [3]: 38.1 min
half-life [4]: 770 min
half-life [5]: 43.8 min
